# Source: patent publication US5304474A, “Hydrophobic peptide esters and amides” (Board of Regents, The University of Texas System, priority 1991, dated 1994)
# “Also recorded” adds a separate entry of the source. Where two headings read alike, the source gives them in different places. Peptide text beside a SMILES is read from it. * marks the point of attachment. βNA = c1ccc2cc(N*)ccc2c1
# How the values were obtained:
# [1] = tested on: natural killer cells (NK); experiment: NK function: lysis of K562 target cells (51Cr release) after preincubation of lymphocytes with compound; conditions: for NK toxicity / effect on NK function, in words: lymphocytes exposed 15 minutes at room temperature (FIG. 4, FIG. 5); for NK Toxicity (LD50): concentration which results in 50% loss of human NK function, PBL 15 minutes at 22° C.; for NK Function % Specific Cytotoxicity: Nil 50.8 (Table 2)
# Description: PBM were separated from heparinized venous blood of healthy donors by centrifugation over sodium diatrizoate-Ficoll gradients (Isolymph, Gallard-Schlesinger Chemical Mfg. Corp., Carle Place, N.Y.).
# All cell exposures to the amino acids, dipeptides or their methyl esters were carried out by suspending cells in Dulbecco's phosphate buffered saline (PBS) and incubating them at room temperature with the reagent at the indicated concentration and time interval.
# Percent of control cytotoxicity was calculated using the formula: [formula]
# [2] = tested on: [^3 H]Leu-Leu-OMe uptake by PBL (facilitated transport); experiment: Competitive inhibition of [3H]Leu-Leu-OMe uptake; assay type: cell-based, human; conditions: for inhibition at 250 µM: Homo sapiens, unlabeled compound 250 microM
# Description: Human peripheral blood lymphocytes (PBL) were incubated in the presence of [^3 H]labeled Leu-Leu-OMe at 22° C. for varying lengths of time. The incubation mixture was then centrifuged through silicone oil to separate the cells from any unbound or non-internalized [^3 HLeu-Leu-OMe. […] At 37° C., levels of [^3 H]Leu-Leu-OMe accumulation by PBL were increased above those seen at 22° C. (see Table 4).
# [3] = tested on: production of a TCA insoluble product from [^3 H]Leu-Leu-OMe; assay type: cell-based, human
# Source text: Iodoacetamide nonspecifically binds covalently to free sulfhydryl groups and thereby inhibits thiol protease function as well as other enzymatic reactions dependent on the presence of reduced sulfhydryl groups.
# human erythrocytes (RBC) = experiment: 51Cr release from RBC incubated with peptide ester alone; assay type: cell-based; conditions: for ^51 Cr Release from RBC: Nil 410 + 12
# Description: The following experiments were carried out to determine whether DPPI could generate a lytic product from Leu-Leu-OMe. In the experiment detailed in FIG. 12, ^51 Cr-labeled human erythrocytes (RBC) were incubated with varying concentrations of Leu-Leu-OMe alone or in the presence of purified bovine DPPI.
# [4] = [3H]Leu-Leu-OMe 10 microM (Table 6)
# [5] = Expt. 1, Cycloheximide 100 micro-g/ml, PMSF 1 micro-M, Iodoacetamide 0.5 micro-M, Nil 2,160 + 193
# [6] = [3H]Leu-Leu-OMe 10 microM (Table 5)
molecule,measurement,setting,value
COC(=O)[C@H](CC(C)C)NC(=O)[C@@H](N)CC(=O)O [Asp-Leu-OMe] (H-Asp-Leu-OMe),"NK toxicity / effect on NK function, in words",[1],exhibit no NK toxicity
same,"competitive inhibition of [3H]Leu-Leu-OMe uptake, in words",[2],not competitively inhibited
"COC(=O)[C@H](Cc1ccccc1)NC(=O)[C@@H](N)CC(=O)O [Asp-Phe-OMe, aspartyl phenylalanine methyl ester] (H-Asp-Phe-OMe)",NK Toxicity (LD50),[1],> 250 micro-M
same,"NK toxicity / effect on NK function, in words",[1],no observed NK inhibitory effects
same,NK Function % Specific Cytotoxicity,[1]; preincubation 100 micromolar,54.2%
same,NK Function % Specific Cytotoxicity,[1]; preincubation 250 micromolar,45.7%
same,NK Function % Specific Cytotoxicity,[1]; preincubation 500 micromolar,45.7%
same,NK Function % Specific Cytotoxicity,[1]; preincubation 1000 micromolar,46.9%
same,inhibition at 250 µM,[2]; [4],8%
"NCC(=O)N[C@@H](Cc1ccccc1)C(=O)Nc1ccc2ccccc2c1 [Gly-Phe-beta-naphthylamide, glycyl L-phenylalanyl beta napthylamide] (H-Gly-Phe-βNA)",NK Function % Specific Lysis K562,"[1]; 1 micro-M, Nil 40.8 (Table 16)",52.5%
same,NK Function % Specific Lysis K562,"[1]; 5 micro-M, Nil 40.8 (Table 16)",1.2%
same,NK Function % Specific Lysis K562,"[1]; 20 micro-M, Nil 40.8 (Table 16)",0.6%
same,"NK toxicity / effect on NK function, in words",[1],a very potent NK toxin
same,"competitive inhibition of [3H]Leu-Leu-OMe uptake, in words",[2],competitively inhibits [^3 H]Leu-Leu-OMe uptake by lymphocytes
"NC(=O)CI [Iodoacetamide, iodoacetamide]","[^3 H]Leu--Leu--OMe Incorporation, 10% TCA Precipitate",[3],243 + 16 cpm
same,"[^3 H]Leu--Leu--OMe Incorporation, Initial",[3],"6,316 + 188 cpm"
same,"[^3 H]Leu--Leu--OMe Incorporation, 10% TCA Precipitate",[3]; [5],140 + 5 cpm
COC(=O)[C@H](CC(C)C)NC(=O)[C@H](CC(C)C)NC(=O)[C@H](CC(C)C)NC(=O)[C@H](CC(C)C)NC(=O)[C@H](CC(C)C)NC(=O)[C@@H](N)CC(C)C [LLLLLLOMe] (H-LLLLLL-OMe),^51 Cr Release from RBC,human erythrocytes (RBC); 20 micro-M,698 + 137
same,^51 Cr Release from RBC,human erythrocytes (RBC); 100 micro-M,"6,129 + 400"
same,^51 Cr Release from RBC,human erythrocytes (RBC); 500 micro-M,"3,531 + 101"
same,"damage to RBC by compound alone, in words",human erythrocytes (RBC); no DPPI,Disruption of erythrocyte membranes was observed
COC(=O)[C@H](CC(C)C)NC(=O)[C@H](CC(C)C)NC(=O)[C@H](CC(C)C)NC(=O)[C@@H](N)CC(C)C [LLLLOMe] (H-LLLL-OMe),^51 Cr Release from RBC,human erythrocytes (RBC); 100 micro-M,425 + 24
same,^51 Cr Release from RBC,human erythrocytes (RBC); 500 micro-M,457 + 41
COC(=O)[C@H](CC(C)C)NC(=O)[C@H](CC(C)C)NC(=O)[C@@H](N)CC(C)C [Leu-Leu-Leu-OMe] (H-Leu-Leu-Leu-OMe),concentration required for effect equivalent to Leu-Leu-OMe,[1]; MP-depleted lymphocytes (FIG. 4),5 fold
same,"NK toxicity / effect on NK function, in words",[1],caused dose-dependent loss of NK function
same,"competitive inhibition of [3H]Leu-Leu-OMe uptake, in words",[2],do not competitively inhibit PBL uptake of L-Leu-L-Leu-OMe
same,inhibition at 250 µM,[2]; [6],6%
CC(C)C[C@H](NC(=O)[C@@H](N)CC(C)C)C(N)=O [Leu-Leu-NH2],NK Function % Specific Lysis K562,"[1]; 1.00 micro-M, Nil 66 (Table 14)",66%
same,NK Function % Specific Lysis K562,"[1]; 250.00 micro-M, Nil 66 (Table 14)",71%
same,"NK toxicity / effect on NK function, in words",[1],no discernible toxicity for NK Cells
same,"competitive inhibition of [3H]Leu-Leu-OMe uptake, in words",[2],do not competitively inhibit PBL uptake of L-Leu-L-Leu-OMe
same,inhibition at 250 µM,[2]; [6],8%
"CC(C)C[C@H](NC(=O)[C@@H](N)CC(C)C)C(=O)OCc1ccccc1 [Leu-Leu-OBenzyl, L-leucyl-L-leucyl benzyl ester]",potency relative to Leu-Leu-OMe in depleting human PBL of cytotoxic lymphocytes,[1],greater than twofold more potent than Leu-Leu-OMe
same,NK Function % Specific Lysis K562,"[1]; 6.25 micro-M during preincubation, Nil 66 (Table 14)",62%
same,NK Function % Specific Lysis K562,"[1]; 12.50 micro-M, Nil 66 (Table 14)",< 1%
same,NK Function % Specific Lysis K562,"[1]; 25.00 micro-M, Nil 66 (Table 14)",1%
same,"NK toxicity / effect on NK function, in words",[1],ablates human NK activity
same,"competitive inhibition of [3H]Leu-Leu-OMe uptake, in words",[2],competitively inhibited
same,inhibition at 250 µM,[2]; [6],87%
COC(=O)[C@H](Cc1ccc(O)cc1)NC(=O)[C@@H](N)CC(C)C [Leu-Tyr-OMe] (H-Leu-Tyr-OMe),NK Toxicity (LD50),[1],> 250 micro-M
same,"NK toxicity / effect on NK function, in words",[1],no observed NK inhibitory effects; also recorded: little or no toxicity for NK cells
same,"competitive inhibition of [3H]Leu-Leu-OMe uptake, in words",[2],excellent competitive inhibitors of [^3 H]Leu-Leu-OMe uptake
same,inhibition at 250 µM,[2]; [4],86%
"O=S(=O)(F)Cc1ccccc1 [PMSF, phenylmethylsulfonylfluoride]","[^3 H]Leu--Leu--OMe Incorporation, 10% TCA Precipitate",[3]; [5],"2,078 + 213 cpm"
COC(=O)[C@H](CC(C)C)NC(=O)[C@@H]1CCCN1 [Pro-Leu-OMe] (H-Pro-Leu-OMe),NK Toxicity (LD50),[1],> 250 micro-M
same,"NK toxicity / effect on NK function, in words",[1],exhibit no NK toxicity
same,"competitive inhibition of [3H]Leu-Leu-OMe uptake, in words",[2],not competitively inhibited
same,inhibition at 250 µM,[2]; [4],-18%
COC(=O)[C@H](CC(C)C)NC(=O)[C@@H](N)CO [Ser-Leu-OMe] (H-Ser-Leu-OMe),NK Toxicity (LD50),[1],> 250 micro-M
same,"NK toxicity / effect on NK function, in words",[1],no observed NK inhibitory effects; also recorded: little or no toxicity for NK cells
same,"competitive inhibition of [3H]Leu-Leu-OMe uptake, in words",[2],excellent competitive inhibitors of [^3 H]Leu-Leu-OMe uptake
same,inhibition at 250 µM,[2]; [4],94%
COC(=O)[C@H](Cc1ccccc1)NC(=O)[C@@H](N)C(C)C [Val-Phe-OMe] (H-Val-Phe-OMe),NK Toxicity (LD50),[1],24 micro-M
same,"NK toxicity / effect on NK function, in words",[1],produced concentration-dependent ablation of NK function at concentrations comparable to those at which Leu-Leu-OMe was active; also recorded: among the most potent of the NK toxic dipeptide methyl esters
same,inhibition at 250 µM,[2]; [4],75%
zinc [reference compound],effect on Leu-Leu-OMe mediated NK toxicity,[1]; added with Leu-Leu-OMe,appeared to inhibit this Leu-Leu-OMe toxicity
